Measurements reported in US20100137449A1, “SUBSTITUTED 1,3-CYCLOPENTADIONE MULTI-TARGET PROTEIN KINASE MODULATORS OF CANCER, ANGIOGENESIS AND THE INFLAMMATORY PATHWAYS ASSOCIATED THEREWITH” (METAPROTEOMICS, LLC, priority 2007, published 2010).

Columns and labels:
Assay in all cases: KinaseProfiler Assay
PRAK(h) = target: T1, PRAK(h) (Homo sapiens, UniProt Q8IW41)
T1 sequence (Q8IW41 1-473): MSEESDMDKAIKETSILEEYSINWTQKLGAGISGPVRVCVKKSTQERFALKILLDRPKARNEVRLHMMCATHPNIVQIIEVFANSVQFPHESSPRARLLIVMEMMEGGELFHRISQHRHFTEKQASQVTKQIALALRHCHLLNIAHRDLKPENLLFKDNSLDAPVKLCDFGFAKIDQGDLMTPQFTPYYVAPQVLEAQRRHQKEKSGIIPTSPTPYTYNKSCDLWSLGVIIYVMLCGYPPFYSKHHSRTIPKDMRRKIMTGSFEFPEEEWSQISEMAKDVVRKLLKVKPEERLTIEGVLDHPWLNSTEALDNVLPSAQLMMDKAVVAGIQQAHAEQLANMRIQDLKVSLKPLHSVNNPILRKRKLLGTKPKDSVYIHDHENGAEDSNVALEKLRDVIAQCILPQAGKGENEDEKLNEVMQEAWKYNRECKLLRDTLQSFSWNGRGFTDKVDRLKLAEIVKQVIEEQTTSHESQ

SIK(h) = SIK(h) (Homo sapiens, UniProt P57059)
Pim-2(h) = Pim-2(h) (Homo sapiens, UniProt Q9P1W9)
Chain of Pim-2(h) (Q9P1W9 whole entry): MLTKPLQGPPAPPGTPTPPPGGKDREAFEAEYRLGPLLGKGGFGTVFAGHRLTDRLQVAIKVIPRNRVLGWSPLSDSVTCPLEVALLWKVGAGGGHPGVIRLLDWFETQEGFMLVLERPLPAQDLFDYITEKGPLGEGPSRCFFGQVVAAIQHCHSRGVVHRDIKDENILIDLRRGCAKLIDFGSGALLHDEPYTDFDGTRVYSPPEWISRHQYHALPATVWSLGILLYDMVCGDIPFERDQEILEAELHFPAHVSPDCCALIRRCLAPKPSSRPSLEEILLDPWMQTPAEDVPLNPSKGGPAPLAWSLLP

Tie2(h) = Tie2(h) (Homo sapiens, UniProt Q02763)
Chain of Tie2(h) (Q02763 23-1124): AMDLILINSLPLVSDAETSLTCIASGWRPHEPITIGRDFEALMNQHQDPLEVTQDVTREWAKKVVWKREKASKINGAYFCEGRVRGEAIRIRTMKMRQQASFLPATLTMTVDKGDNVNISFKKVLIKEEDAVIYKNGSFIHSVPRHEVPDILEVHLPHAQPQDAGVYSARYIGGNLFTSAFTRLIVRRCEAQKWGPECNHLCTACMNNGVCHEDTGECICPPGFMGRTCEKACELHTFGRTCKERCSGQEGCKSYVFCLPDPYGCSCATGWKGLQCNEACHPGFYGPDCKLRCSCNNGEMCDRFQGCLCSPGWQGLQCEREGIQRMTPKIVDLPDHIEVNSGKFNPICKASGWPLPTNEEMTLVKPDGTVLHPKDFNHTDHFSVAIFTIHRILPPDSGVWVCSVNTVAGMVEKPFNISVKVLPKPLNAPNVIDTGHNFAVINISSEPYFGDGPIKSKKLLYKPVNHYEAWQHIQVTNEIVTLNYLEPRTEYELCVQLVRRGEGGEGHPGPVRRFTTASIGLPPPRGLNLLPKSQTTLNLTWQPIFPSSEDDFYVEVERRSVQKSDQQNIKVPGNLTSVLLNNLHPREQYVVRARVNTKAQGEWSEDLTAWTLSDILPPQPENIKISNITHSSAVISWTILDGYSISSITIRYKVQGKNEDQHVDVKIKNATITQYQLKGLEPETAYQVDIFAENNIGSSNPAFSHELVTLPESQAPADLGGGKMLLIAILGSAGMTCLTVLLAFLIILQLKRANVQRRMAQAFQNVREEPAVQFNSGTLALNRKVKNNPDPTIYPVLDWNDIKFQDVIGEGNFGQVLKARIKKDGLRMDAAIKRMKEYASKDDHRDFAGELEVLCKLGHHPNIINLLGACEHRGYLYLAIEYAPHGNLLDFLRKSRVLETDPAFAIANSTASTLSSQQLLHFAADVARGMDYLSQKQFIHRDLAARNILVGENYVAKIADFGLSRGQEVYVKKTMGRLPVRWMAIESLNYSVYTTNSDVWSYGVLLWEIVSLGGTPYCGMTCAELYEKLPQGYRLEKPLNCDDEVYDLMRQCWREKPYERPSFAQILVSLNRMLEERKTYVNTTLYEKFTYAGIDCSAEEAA

NEK3(h) = target: T2, NEK3(h) (Homo sapiens, UniProt P51956)
T2 sequence (P51956 1-506): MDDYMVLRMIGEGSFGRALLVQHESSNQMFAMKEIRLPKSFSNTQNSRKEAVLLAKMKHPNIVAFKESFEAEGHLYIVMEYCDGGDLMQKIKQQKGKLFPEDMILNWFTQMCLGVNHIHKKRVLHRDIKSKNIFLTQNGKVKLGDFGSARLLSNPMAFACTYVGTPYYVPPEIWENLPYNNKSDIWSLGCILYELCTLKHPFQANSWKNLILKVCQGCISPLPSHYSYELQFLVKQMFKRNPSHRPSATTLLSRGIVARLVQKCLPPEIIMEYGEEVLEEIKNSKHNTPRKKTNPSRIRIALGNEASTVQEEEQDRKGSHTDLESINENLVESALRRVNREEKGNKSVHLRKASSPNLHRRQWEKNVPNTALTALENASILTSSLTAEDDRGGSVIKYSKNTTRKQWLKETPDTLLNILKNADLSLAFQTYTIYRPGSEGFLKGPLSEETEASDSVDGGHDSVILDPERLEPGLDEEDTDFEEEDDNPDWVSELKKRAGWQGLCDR

Abl(H396P)(h) = Abl(H396P)(h) (Homo sapiens, UniProt P00519, H396P)
NEK2(h) = target: T3, NEK2(h) (Homo sapiens, UniProt P51955)
T3 sequence (P51955 1-445): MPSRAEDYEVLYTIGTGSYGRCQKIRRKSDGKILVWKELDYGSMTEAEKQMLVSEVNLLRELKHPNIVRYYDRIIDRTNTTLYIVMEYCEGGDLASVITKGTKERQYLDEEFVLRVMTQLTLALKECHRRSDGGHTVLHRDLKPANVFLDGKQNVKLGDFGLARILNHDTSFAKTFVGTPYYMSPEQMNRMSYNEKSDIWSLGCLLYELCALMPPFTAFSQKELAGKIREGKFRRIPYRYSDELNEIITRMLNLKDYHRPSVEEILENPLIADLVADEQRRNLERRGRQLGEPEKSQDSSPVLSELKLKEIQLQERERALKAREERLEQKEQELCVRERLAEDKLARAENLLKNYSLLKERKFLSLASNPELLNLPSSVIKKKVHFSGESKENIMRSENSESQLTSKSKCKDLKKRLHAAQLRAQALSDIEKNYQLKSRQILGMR

PAK5(h) = PAK5(h) (Homo sapiens, UniProt Q9P286)
Chain of PAK5(h) (Q9P286 whole entry): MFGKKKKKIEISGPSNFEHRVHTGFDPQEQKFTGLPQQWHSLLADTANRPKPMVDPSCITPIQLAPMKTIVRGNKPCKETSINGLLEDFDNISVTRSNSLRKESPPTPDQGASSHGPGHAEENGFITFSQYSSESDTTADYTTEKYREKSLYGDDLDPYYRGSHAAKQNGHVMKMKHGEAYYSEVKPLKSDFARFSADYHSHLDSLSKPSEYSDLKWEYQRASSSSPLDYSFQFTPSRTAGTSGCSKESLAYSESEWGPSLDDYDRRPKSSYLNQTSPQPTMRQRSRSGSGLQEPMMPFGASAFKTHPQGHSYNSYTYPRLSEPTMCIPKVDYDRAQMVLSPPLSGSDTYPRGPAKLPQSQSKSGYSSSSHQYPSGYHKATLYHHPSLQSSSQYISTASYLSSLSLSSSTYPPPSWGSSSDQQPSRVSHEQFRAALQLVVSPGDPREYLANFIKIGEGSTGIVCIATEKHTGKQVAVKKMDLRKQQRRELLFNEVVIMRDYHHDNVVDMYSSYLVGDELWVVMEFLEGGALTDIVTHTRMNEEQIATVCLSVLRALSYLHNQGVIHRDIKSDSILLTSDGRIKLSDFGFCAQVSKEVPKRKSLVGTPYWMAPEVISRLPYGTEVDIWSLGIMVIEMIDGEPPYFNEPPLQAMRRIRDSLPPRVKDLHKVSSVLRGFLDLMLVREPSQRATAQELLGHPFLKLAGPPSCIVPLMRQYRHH

FGFR4(h) = FGFR4(h) (Homo sapiens, UniProt P22455)
Chain of FGFR4(h) (P22455 22-802): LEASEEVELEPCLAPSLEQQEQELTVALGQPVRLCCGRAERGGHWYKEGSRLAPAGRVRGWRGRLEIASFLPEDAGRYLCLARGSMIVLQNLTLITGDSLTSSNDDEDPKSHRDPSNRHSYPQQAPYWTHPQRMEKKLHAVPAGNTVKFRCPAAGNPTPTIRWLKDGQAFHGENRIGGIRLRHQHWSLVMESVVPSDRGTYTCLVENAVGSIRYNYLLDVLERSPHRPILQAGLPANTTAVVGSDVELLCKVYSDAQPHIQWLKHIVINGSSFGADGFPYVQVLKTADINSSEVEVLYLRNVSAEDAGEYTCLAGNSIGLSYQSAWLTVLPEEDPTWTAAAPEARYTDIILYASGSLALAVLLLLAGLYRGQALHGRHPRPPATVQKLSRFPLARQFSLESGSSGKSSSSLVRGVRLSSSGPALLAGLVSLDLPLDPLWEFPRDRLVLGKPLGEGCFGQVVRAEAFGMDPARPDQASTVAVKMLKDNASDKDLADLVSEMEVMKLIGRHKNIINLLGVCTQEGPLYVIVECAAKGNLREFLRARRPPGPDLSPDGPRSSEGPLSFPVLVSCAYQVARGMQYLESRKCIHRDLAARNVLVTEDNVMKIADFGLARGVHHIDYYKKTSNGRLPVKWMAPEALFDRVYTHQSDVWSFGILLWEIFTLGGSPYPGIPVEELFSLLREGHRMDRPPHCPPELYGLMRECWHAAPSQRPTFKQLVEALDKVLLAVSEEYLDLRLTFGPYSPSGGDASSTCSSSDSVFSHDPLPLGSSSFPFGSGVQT

SRPK2(h) = SRPK2(h) (Homo sapiens, UniProt P78362)
Chain of SRPK2(h) (P78362 whole entry): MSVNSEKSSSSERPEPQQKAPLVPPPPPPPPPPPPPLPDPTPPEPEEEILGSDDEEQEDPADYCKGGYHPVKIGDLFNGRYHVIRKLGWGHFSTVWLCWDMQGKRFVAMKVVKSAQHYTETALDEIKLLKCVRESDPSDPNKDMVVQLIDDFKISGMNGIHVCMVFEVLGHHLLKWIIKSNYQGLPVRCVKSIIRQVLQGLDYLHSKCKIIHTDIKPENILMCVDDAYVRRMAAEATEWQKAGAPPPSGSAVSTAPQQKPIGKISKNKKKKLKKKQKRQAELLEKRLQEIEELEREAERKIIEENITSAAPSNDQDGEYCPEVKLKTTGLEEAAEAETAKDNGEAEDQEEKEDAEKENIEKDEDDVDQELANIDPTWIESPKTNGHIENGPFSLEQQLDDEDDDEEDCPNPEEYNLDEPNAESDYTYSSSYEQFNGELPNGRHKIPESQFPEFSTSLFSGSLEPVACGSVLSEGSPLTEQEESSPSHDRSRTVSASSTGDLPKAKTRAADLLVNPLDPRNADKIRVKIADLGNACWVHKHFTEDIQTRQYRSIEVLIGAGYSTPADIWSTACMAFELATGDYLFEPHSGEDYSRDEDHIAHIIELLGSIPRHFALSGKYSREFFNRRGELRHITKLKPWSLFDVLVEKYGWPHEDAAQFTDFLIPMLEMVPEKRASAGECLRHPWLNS

FGFR1(V561M)(h) = FGFR1(V561M)(h) (Homo sapiens, UniProt P11362, V561M)
Chain of FGFR1(V561M)(h) (P11362 22-822 V561M): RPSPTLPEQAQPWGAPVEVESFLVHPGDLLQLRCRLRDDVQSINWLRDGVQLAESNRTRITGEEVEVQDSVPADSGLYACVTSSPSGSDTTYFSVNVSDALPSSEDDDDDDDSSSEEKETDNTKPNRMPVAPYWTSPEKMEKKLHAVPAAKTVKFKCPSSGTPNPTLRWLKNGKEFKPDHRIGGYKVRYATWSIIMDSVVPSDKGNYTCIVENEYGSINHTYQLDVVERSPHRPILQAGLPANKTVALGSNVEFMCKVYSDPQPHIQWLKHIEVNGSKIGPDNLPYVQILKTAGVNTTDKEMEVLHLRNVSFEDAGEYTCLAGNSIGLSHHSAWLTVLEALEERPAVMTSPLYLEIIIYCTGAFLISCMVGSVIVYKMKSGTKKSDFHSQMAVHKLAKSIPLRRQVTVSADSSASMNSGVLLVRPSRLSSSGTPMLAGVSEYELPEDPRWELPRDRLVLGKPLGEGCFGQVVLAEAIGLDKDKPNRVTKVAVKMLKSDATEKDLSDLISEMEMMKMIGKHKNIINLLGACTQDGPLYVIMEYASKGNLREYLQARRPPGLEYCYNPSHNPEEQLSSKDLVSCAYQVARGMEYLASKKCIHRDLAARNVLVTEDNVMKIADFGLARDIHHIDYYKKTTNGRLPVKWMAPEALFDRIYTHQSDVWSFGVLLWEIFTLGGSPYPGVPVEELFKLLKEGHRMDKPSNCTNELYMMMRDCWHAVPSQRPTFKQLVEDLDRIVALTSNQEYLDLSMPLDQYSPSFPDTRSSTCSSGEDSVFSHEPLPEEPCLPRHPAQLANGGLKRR

Fyn(h) = Fyn(h) (Homo sapiens, UniProt P06241)
Chain of Fyn(h) (P06241 whole entry): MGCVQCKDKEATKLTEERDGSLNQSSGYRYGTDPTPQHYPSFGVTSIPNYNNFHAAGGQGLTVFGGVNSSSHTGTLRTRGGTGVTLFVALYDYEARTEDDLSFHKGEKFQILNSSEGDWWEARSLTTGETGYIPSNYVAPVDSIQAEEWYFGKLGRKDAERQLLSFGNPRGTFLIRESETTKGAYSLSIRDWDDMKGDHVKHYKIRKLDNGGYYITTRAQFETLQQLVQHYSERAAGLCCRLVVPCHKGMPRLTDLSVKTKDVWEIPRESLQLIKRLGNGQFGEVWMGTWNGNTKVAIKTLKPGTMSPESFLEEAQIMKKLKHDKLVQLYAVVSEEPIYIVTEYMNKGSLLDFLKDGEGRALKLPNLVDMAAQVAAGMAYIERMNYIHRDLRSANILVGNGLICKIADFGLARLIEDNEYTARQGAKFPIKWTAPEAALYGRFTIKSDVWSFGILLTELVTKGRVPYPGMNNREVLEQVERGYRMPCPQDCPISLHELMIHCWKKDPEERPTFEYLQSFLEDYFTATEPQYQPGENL

CC(C)CCC(=O)[C@]1(O)C(O)=C(C(=O)C(C)C)C(=O)[C@H]1CCC(C)C [TH2, tetrahydroiso-cohumulone]
kinase inhibition (PRAK(h); 1 μg/ml): 66% of control | kinase inhibition (PRAK(h); 5 μg/ml): 45% of control | kinase inhibition (PRAK(h); 25 μg/ml): 19% of control | kinase inhibition (PRAK(h); 50 μg/ml): 24% of control | kinase inhibition (PRAK(h); 100 μg/ml): 19% of control | kinase inhibition (SIK(h); 1 μg/ml): 102% of control | kinase inhibition (SIK(h); 5 μg/ml): 99% of control | kinase inhibition (SIK(h); 25 μg/ml): 104% of control | kinase inhibition (SIK(h); 50 μg/ml): 89% of control | kinase inhibition (SIK(h); 100 μg/ml): 62% of control | kinase inhibition (Pim-2(h); 1 μg/ml): 103% of control | kinase inhibition (Pim-2(h); 5 μg/ml): 111% of control | kinase inhibition (Pim-2(h); 25 μg/ml): 77% of control | kinase inhibition (Pim-2(h); 50 μg/ml): 73% of control | kinase inhibition (Pim-2(h); 100 μg/ml): 67% of control | kinase inhibition (Tie2(h); 1 μg/ml): 110% of control | kinase inhibition (Tie2(h); 5 μg/ml): 96% of control | kinase inhibition (Tie2(h); 25 μg/ml): 74% of control | kinase inhibition (Tie2(h); 50 μg/ml): 80% of control | kinase inhibition (Tie2(h); 100 μg/ml): 78% of control | kinase inhibition (NEK3(h); 1 μg/ml): 99% of control | kinase inhibition (NEK3(h); 5 μg/ml): 102% of control | kinase inhibition (NEK3(h); 25 μg/ml): 97% of control | kinase inhibition (NEK3(h); 50 μg/ml): 94% of control | kinase inhibition (NEK3(h); 100 μg/ml): 92% of control | kinase inhibition (Abl(H396P)(h); 1 μg/ml): 96% of control | kinase inhibition (Abl(H396P)(h); 5 μg/ml): 103% of control | kinase inhibition (Abl(H396P)(h); 25 μg/ml): 83% of control | kinase inhibition (Abl(H396P)(h); 50 μg/ml): 65% of control | kinase inhibition (Abl(H396P)(h); 100 μg/ml): 54% of control | kinase inhibition (NEK2(h); 1 μg/ml): 106% of control | kinase inhibition (NEK2(h); 5 μg/ml): 109% of control | kinase inhibition (NEK2(h); 25 μg/ml): 105% of control | kinase inhibition (NEK2(h); 50 μg/ml): 102% of control | kinase inhibition (NEK2(h); 100 μg/ml): 72% of control | kinase inhibition (PAK5(h); 1 μg/ml): 106% of control | kinase inhibition (PAK5(h); 5 μg/ml): 105% of control | kinase inhibition (PAK5(h); 25 μg/ml): 91% of control | kinase inhibition (PAK5(h); 50 μg/ml): 93% of control | kinase inhibition (PAK5(h); 100 μg/ml): 61% of control | kinase inhibition (FGFR4(h); 1 μg/ml): 89% of control | kinase inhibition (FGFR4(h); 5 μg/ml): 81% of control | kinase inhibition (FGFR4(h); 25 μg/ml): 55% of control | kinase inhibition (FGFR4(h); 50 μg/ml): 64% of control | kinase inhibition (FGFR4(h); 100 μg/ml): 55% of control | kinase inhibition (SRPK2(h); 1 μg/ml): 105% of control | kinase inhibition (SRPK2(h); 5 μg/ml): 104% of control | kinase inhibition (SRPK2(h); 25 μg/ml): 99% of control | kinase inhibition (SRPK2(h); 50 μg/ml): 91% of control | kinase inhibition (SRPK2(h); 100 μg/ml): 88% of control | kinase inhibition (FGFR1(V561M)(h); 1 μg/ml): 105% of control | kinase inhibition (FGFR1(V561M)(h); 5 μg/ml): 107% of control | kinase inhibition (FGFR1(V561M)(h); 25 μg/ml): 95% of control | kinase inhibition (FGFR1(V561M)(h); 50 μg/ml): 79% of control | kinase inhibition (FGFR1(V561M)(h); 100 μg/ml): 75% of control | kinase inhibition (Fyn(h); 1 μg/ml): 103% of control | kinase inhibition (Fyn(h); 5 μg/ml): 105% of control | kinase inhibition (Fyn(h); 25 μg/ml): 103% of control | kinase inhibition (Fyn(h); 50 μg/ml): 105% of control | kinase inhibition (Fyn(h); 100 μg/ml): 89% of control
